Reference: the supplement of paper PMC10307832

How the values were obtained:
Assay in all cases: relative viability (nuclei count vs DMSO), 5 days (fraction); higher = more cells survive
NCI-H727 = test system: NCI-H727
Procedure, shortened: (§1)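 Cells from lung cancer lines were seeded into 1536-well plates and, one day later, dosed by pin tool. Treatments were either a single drug or a fixed dose of an anchor drug with five library-drug doses (not always all listed) in √10 steps. After 5 days, nuclei were stained in a one-step fixation (final 0.05% Triton X-100, 1% formaldehyde, 1 ug/ml Hoechst) and counted on 4× images, and relative viability is the treated-to-vehicle nuclei ratio, as the median of duplicate plates.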

SK-LU-1 = test system: SK-LU-1
Procedure, shortened: as §1

NCI-H1975 = test system: NCI-H1975
Procedure, shortened: as §1

NCI-H596 = test system: NCI-H596
Procedure, shortened: as §1

EKVX = test system: EKVX
Procedure, shortened: as §1

NCI-H460 = test system: NCI-H460
Procedure, shortened: as §1

NCI-H522 = test system: NCI-H522
Procedure, shortened: as §1

NCI-H1666 = test system: NCI-H1666
Procedure, shortened: as §1

LCLC-97TM1 = test system: LCLC-97TM1
Procedure, shortened: as §1

NCI-H1437 = test system: NCI-H1437
Procedure, shortened: as §1

PC-3 [JPC-3] = test system: PC-3 [JPC-3]
Procedure, shortened: as §1

NCI-H838 = test system: NCI-H838
Procedure, shortened: as §1

NCI-H1915 = test system: NCI-H1915
Procedure, shortened: as §1

NCI-H441 = test system: NCI-H441
Procedure, shortened: as §1

NCI-H661 = test system: NCI-H661
Procedure, shortened: as §1

NCI-H322M = test system: NCI-H322M
Procedure, shortened: as §1

NCI-H2342 = test system: NCI-H2342
Procedure, shortened: as §1

NCI-H647 = test system: NCI-H647
Procedure, shortened: as §1

NCI-H520 = test system: NCI-H520
Procedure, shortened: as §1

NCI-H1650 = test system: NCI-H1650
Procedure, shortened: as §1

NCI-H358 = test system: NCI-H358
Procedure, shortened: as §1

NCI-H23 = test system: NCI-H23
Procedure, shortened: as §1

CN1CCN(CCOc2cc(OC3CCOCC3)c3c(Nc4c(Cl)ccc5c4OCO5)ncnc3c2)CC1 [Saracatinib] + O=C(CCCCCCC(=O)Nc1ccccc1)NO [Vorinostat] (partner 1 µM)
relative viability (NCI-H727; first compound 0.02 µM): 1.12
relative viability (NCI-H727; first compound 0.2 µM): 0.996
relative viability (NCI-H727; first compound 0.6325 µM): 1.23
relative viability (NCI-H727; first compound 2 µM): 0.888
relative viability (SK-LU-1; first compound 0.02 µM): 0.758
relative viability (SK-LU-1; first compound 0.2 µM): 0.657
relative viability (SK-LU-1; first compound 0.6325 µM): 0.657
relative viability (SK-LU-1; first compound 2 µM): 0.509
relative viability (NCI-H1975; first compound 0.02 µM): 0.72
relative viability (NCI-H1975; first compound 0.2 µM): 0.716
relative viability (NCI-H1975; first compound 0.6325 µM): 0.725
relative viability (NCI-H1975; first compound 2 µM): 0.563
relative viability (NCI-H596; first compound 0.02 µM): 0.568
relative viability (NCI-H596; first compound 0.2 µM): 0.511
relative viability (NCI-H596; first compound 0.6325 µM): 0.585
relative viability (NCI-H596; first compound 2 µM): 0.406
relative viability (EKVX; first compound 0.02 µM): 0.762
relative viability (EKVX; first compound 0.2 µM): 0.474
relative viability (EKVX; first compound 0.6325 µM): 0.817
relative viability (EKVX; first compound 2 µM): 0.494
relative viability (NCI-H460; first compound 0.02 µM): 0.735
relative viability (NCI-H460; first compound 0.2 µM): 0.591
relative viability (NCI-H460; first compound 0.6325 µM): 0.677
relative viability (NCI-H460; first compound 2 µM): 0.604
relative viability (NCI-H522; first compound 0.02 µM): 0.856
relative viability (NCI-H522; first compound 0.2 µM): 0.658
relative viability (NCI-H522; first compound 0.6325 µM): 0.897
relative viability (NCI-H522; first compound 2 µM): 0.778
relative viability (NCI-H1666; first compound 0.02 µM): 0.988
relative viability (NCI-H1666; first compound 0.2 µM): 0.914
relative viability (NCI-H1666; first compound 0.6325 µM): 1.12
relative viability (NCI-H1666; first compound 2 µM): 1.2
relative viability (LCLC-97TM1; first compound 0.02 µM): 0.775
relative viability (LCLC-97TM1; first compound 0.2 µM): 0.411
relative viability (LCLC-97TM1; first compound 0.6325 µM): 0.839
relative viability (LCLC-97TM1; first compound 2 µM): 0.554
relative viability (NCI-H1437; first compound 0.02 µM): 1.05
relative viability (NCI-H1437; first compound 0.2 µM): 0.995
relative viability (NCI-H1437; first compound 0.6325 µM): 1.14
relative viability (NCI-H1437; first compound 2 µM): 1.17
relative viability (PC-3 [JPC-3]; first compound 0.02 µM): 0.819
relative viability (PC-3 [JPC-3]; first compound 0.2 µM): 0.47
relative viability (PC-3 [JPC-3]; first compound 0.6325 µM): 0.529
relative viability (PC-3 [JPC-3]; first compound 2 µM): 0.477
relative viability (NCI-H838; first compound 0.02 µM): 0.685
relative viability (NCI-H838; first compound 0.2 µM): 0.681
relative viability (NCI-H838; first compound 0.6325 µM): 0.721
relative viability (NCI-H838; first compound 2 µM): 0.765
relative viability (NCI-H1915; first compound 0.02 µM): 0.472
relative viability (NCI-H1915; first compound 0.2 µM): 0.462
relative viability (NCI-H1915; first compound 0.6325 µM): 0.477
relative viability (NCI-H1915; first compound 2 µM): 0.477
relative viability (NCI-H441; first compound 0.02 µM): 0.84
relative viability (NCI-H441; first compound 0.2 µM): 0.731
relative viability (NCI-H441; first compound 0.6325 µM): 0.913
relative viability (NCI-H441; first compound 2 µM): 0.94
relative viability (NCI-H661; first compound 0.02 µM): 0.798
relative viability (NCI-H661; first compound 0.2 µM): 0.808
relative viability (NCI-H661; first compound 0.6325 µM): 0.81
relative viability (NCI-H661; first compound 2 µM): 0.693
relative viability (NCI-H322M; first compound 0.02 µM): 0.73
relative viability (NCI-H322M; first compound 0.2 µM): 0.744
relative viability (NCI-H322M; first compound 0.6325 µM): 0.702
relative viability (NCI-H322M; first compound 2 µM): 0.37
relative viability (NCI-H2342; first compound 0.02 µM): 0.774
relative viability (NCI-H2342; first compound 0.2 µM): 0.747
relative viability (NCI-H2342; first compound 0.6325 µM): 0.782
relative viability (NCI-H2342; first compound 2 µM): 0.833
relative viability (NCI-H647; first compound 0.02 µM): 0.612
relative viability (NCI-H647; first compound 0.2 µM): 0.499
relative viability (NCI-H647; first compound 0.6325 µM): 0.532
relative viability (NCI-H647; first compound 2 µM): 0.45
relative viability (NCI-H520; first compound 0.02 µM): 0.652
relative viability (NCI-H520; first compound 0.2 µM): 0.471
relative viability (NCI-H520; first compound 0.6325 µM): 0.598
relative viability (NCI-H520; first compound 2 µM): 0.477
relative viability (NCI-H1650; first compound 0.02 µM): 0.654
relative viability (NCI-H1650; first compound 0.2 µM): 0.377
relative viability (NCI-H1650; first compound 0.6325 µM): 0.548
relative viability (NCI-H1650; first compound 2 µM): 0.492
relative viability (NCI-H358; first compound 0.02 µM): 0.645
relative viability (NCI-H358; first compound 0.2 µM): 0.442
relative viability (NCI-H358; first compound 0.6325 µM): 0.526
relative viability (NCI-H358; first compound 2 µM): 0.255
relative viability (NCI-H23; first compound 0.02 µM): 0.539
relative viability (NCI-H23; first compound 0.6325 µM): 0.658
relative viability (NCI-H23; first compound 2 µM): 0.442
